Results: US7772183B2 (Bristol-Myers Squibb Company, priority 2005, dated 2010)

Legend:
[1] = tested on: HCV replicon (Renilla luciferase reporter) in HUH-7 cells; assay: HCV replicon luciferase reporter assay; type: cell-based, Hepatitis C virus (strain 1b); conditions: Huh-7, 96 h, 4 days
Text: An HCV replicon whole cell system was established as described by Lohmann V, Komer F, Koch J, Herian U, Theilmann L, Bartenschlager R., Science 285(5424):110-3 (1999). This system enabled us to evaluate the effects of our HCV Protease compounds on HCV RNA replication. Briefly, using the HCV strain 1b sequence described in the Lohmann paper (Assession number: AJ238799), an HCV cDNA was synthesized by Operon Technologies, Inc. (Alameda, Calif.), and the full-length replicon was then assembled in plasmid pGem9zf(+) (Promega, Madison, Wis.) using standard molecular biology techniques. The replicon consists of (i) the HCV 5′ UTR fused to the first 12 amino acids of the capsid protein, (ii) the neomycin phosphotransferase gene (neo), (iii) the IRES from encephalomyocarditis virus (EMCV), and (iv) HCV NS3 to NS5B genes and the HCV 3′ UTR. […]
As a secondary assay, EC50 determinations from the replicon FRET assay were confirmed in a replicon luciferase reporter assay. […] Following 4 days in a 37° C./5% CO2 incubator, cells were analyzed for Renilla Luciferase activity using the Promega Dual-Glo Luciferase Assay System. […] Plates were read on a Packard TopCount NXT using a luminescence program.
The percentage inhibition was calculated using the formula below: […]
The values were graphed and analyzed using XLfit to obtain the EC50 value.

[2] = tested on: human pancreatic chymotrypsin; assay: Specificity assay, chymotrypsin; type: biochemical; conditions: read-out: Chymotrypsin activity in the specificity assays
Protocol: (§1) The specificities of compounds of the present disclosure were determined against a variety of serine proteases: human neutrophil elastase (HNE), porcine pancreatic elastase (PPE) and human pancreatic chymotrypsin and one cysteine protease: human liver cathepsin B. In all cases, a 96-well plate format protocol using colorimetric p-nitroaniline (pNA) substrate or fluorometric Amino-Methyl-Coumarin (AMC) substrate, specific for each enzyme was used as described previously (PCT Patent Application No. WO 00/09543) with some modifications. All enzymes were purchased from Sigma or EMDbiosciences while the substrates were from Bachem.
(§2) Each pNA assay included a 2 h enzyme-inhibitor pre-incubation at room temperature followed by addition of substrate and hydrolysis to ˜15% conversion as measured on a Spectramax Pro microplate reader. The cathepsin B assay was initiated by adding substrate to a 10 min enzyme-inhibitor pre-incubation at room temperature, and the assay plate measured immediately using the Cytofluor Series 4000. Compound concentrations varied from 100 to 0.4 μM depending on their potency.
(§3) The final conditions for each assay were as follows: […]
(§4) The percentage of inhibition was calculated using the formula: [1−((UVinh−UVblank)/(UVctl−UVblank))]×100 […]

[3] = target: T1, porcine pancreatic elastase (PPE) (Sus scrofa, UniProt P00772); assay: Specificity assay, pancreatic elastase; type: biochemical; conditions: read-out: PPE activity in the specificity assays
T1 construct: purchased Sigma or EMDbiosciences
Protocol: as §1, §2, §3, §4

T1 sequence (P00772 27-266): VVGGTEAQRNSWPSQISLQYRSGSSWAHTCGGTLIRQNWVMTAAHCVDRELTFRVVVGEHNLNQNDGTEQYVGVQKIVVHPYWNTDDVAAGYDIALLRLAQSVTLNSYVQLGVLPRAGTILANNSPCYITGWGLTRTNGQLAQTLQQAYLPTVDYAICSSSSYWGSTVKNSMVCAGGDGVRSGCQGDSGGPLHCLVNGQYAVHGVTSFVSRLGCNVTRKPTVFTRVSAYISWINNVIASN

With `CC(C)(C)OC(=O)N[C@H]1CCCCC/C=C\[C@@H]2C[C@@]2(C(=O)NS(=O)(=O)C2CC2)NC(=O)[C@@H]2C[C@@H](OC(=O)c3ccc(C#N)cc3)CN2C1=O` [Compound 26, 18-(4-cyanobenzoyloxy)-14-tert-butoxycarbonylamino-4-cyclopropylsulfonylaminocarbonyl-2,15-dioxo-3,16-diazatricyclo-[14.3.0.0^4,6]-nonadec-7-ene] the melting point was 164 to 166 °C, the EC50 [1] was 0.0043 µM and the IC50 [2] was over 100 µM. For the same compound, the IC50 [3] was over 100 µM.
